Assay results reported in the supplement of paper PMC8372320.

assay: photocatalytic hydrogen evolution rate (per 5 mg catalyst); higher = more photocatalytic H2 evolution; extreme values may be limits of the assay; conditions: catalyst mass (mg): 5; Pt cocatalyst (wt%): 3; sacrificial medium: triethylamine/methanol/water 1:1:1
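Further: aromatic molecules in triethylamine/methanol/water with Pt photoreduced in situ, irradiated 3 h under a 1 sun AM 1.5G solar simulator (350–1000 nm), H2 quantified by headspace gas chromatography; listed molecule itself used as the photocatalyst at 5 mg per vial.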

| Structure (SMILES) | photocatalytic hydrogen evolution rate |
| --- | --- |
| O=Cc1cc(O)c(O)c(O)c1 | 0 µmol/h |
| O=C1c2cccc(O)c2C(=O)c2cccc(O)c21 | 0 µmol/h |
| CC(C)(C)c1ccc(Nc2ccc(Nc3ccc(C(C)(C)C)cc3)c3c2C(=O)c2c(O)ccc(O)c2C3=O)cc1 | 0 µmol/h |
| N#Cc1ccc(Br)cc1 | 0 µmol/h |
| CC1(C)OB(c2ccc(B3OC(C)(C)C(C)(C)O3)cc2)OC1(C)C | 0 µmol/h |
| Brc1ccc(Br)c2nonc12 | 0 µmol/h |
| Nc1ccc(-c2c3nc(c(-c4ccc(N)cc4)c4ccc([nH]4)c(-c4ccc(N)cc4)c4nc(c(-c5ccc(N)cc5)c5ccc2[nH]5)C=C4)C=C3)cc1 | 0 µmol/h |
| Brc1c(Br)c(Br)c(Br)c(Br)c1Br | 0 µmol/h |
| O=C1c2cccc3cccc(c23)C(=O)N1O | 0 µmol/h |
| N#Cc1ccc(C=O)cc1 | 0.136 µmol/h |
| O=C1C=C(Br)C(=O)C=C1Br | 0 µmol/h |
| Cc1cc(C=O)c(O)c(C=O)c1 | 7.62 µmol/h |
| Brc1ccccc1-c1ccccc1Br | 0 µmol/h |
| c1ccc(N=Nc2ccccc2)cc1 | 0 µmol/h |
| O=C1OC2(c3ccc(O)cc3Oc3cc(O)ccc32)c2ccccc21 | 20.2 µmol/h |
| Fc1c(F)c(-c2c(F)c(F)c(Br)c(F)c2F)c(F)c(F)c1Br | 0 µmol/h |
| O=Cc1cc(C=O)c(O)c(C=O)c1 | 10.9 µmol/h |
| c1ccc(N(c2ccccc2)c2ccc(N(c3ccccc3)c3ccccc3)cc2)cc1 | 0 µmol/h |
| OCc1ccc(-c2ccc(CO)cc2)cc1 | 0.00977 µmol/h |
| N#CCc1ccc(C#N)cc1 | 0 µmol/h |
| c1ccc2nc3ccccc3nc2c1 | 0 µmol/h |

| Structure (SMILES) | photocatalytic hydrogen evolution rate |
| --- | --- |
| N#Cc1cc(Br)ccc1Br | 0 µmol/h |
| CCCCCCC1(CCCCCC)c2cc(Br)ccc2-c2ccc(Br)cc21 | 0 µmol/h |
| N#CCc1ccccc1CC#N | 0 µmol/h |
| O=[N+]([O-])c1ccc(C(=C(c2ccc([N+](=O)[O-])cc2)c2ccc([N+](=O)[O-])cc2)c2ccc([N+](=O)[O-])cc2)cc1 | 0 µmol/h |
| Brc1ccc2c3ccc(Br)cc3c3ccccc3c2c1 | 0 µmol/h |
| NC(c1ccccc1)(c1ccccc1)c1ccccc1 | 0 µmol/h |
| O=Cc1ccnc(-c2cc(C=O)ccn2)c1 | 0 µmol/h |
| CC1(C)CC2(CC(C)(C)c3cc(O)c(O)cc32)c2cc(O)c(O)cc21 | 0 µmol/h |
| Nc1ccncc1 | 0 µmol/h |
| N#Cc1cncc(-c2cncc(C#N)c2)c1 | 0 µmol/h |
| O=C1NC(=O)c2ccc3c4ccc5c6c(ccc(c7ccc1c2c73)c64)C(=O)NC5=O | 0 µmol/h |
| Nc1nc2ccccc2[nH]1 | 0 µmol/h |
| Brc1cc(Br)c(Br)cc1Br | 0 µmol/h |
| Brc1ccc2c(c1)C1(c3cc(Br)ccc3-2)c2cc(Br)ccc2-c2ccc(Br)cc21 | 0.0511 µmol/h |
| Fc1ccc(-c2nc(-c3ccccc3)nc(-c3ccccc3)n2)cc1 | 0 µmol/h |
| c1ccc2cc3cc4ccccc4cc3cc2c1 | 0.162 µmol/h |
| COc1ccc(Nc2ccc(OC)cc2)cc1 | 0.055 µmol/h |
| CC1(C)OB(c2ccc(N)cc2)OC1(C)C | 0.0761 µmol/h |
| c1ccc2c(c1)-c1ccccc1C21c2ccccc2-c2ccccc21 | 0 µmol/h |
| c1ccc2sccc2c1 | 0 µmol/h |

Second part, the compound after the results:

| photocatalytic hydrogen evolution rate | Structure (SMILES) |
| --- | --- |
| 0 µmol/h | O=Cc1cc(O)c(O)cc1O |
| 0 µmol/h | CCc1c(CBr)c(CC)c(CBr)c(CC)c1CBr |
| 0.0489 µmol/h | N#Cc1ccc2ccc(C#N)cc2c1 |
| 0 µmol/h | Brc1sc(Br)c(Br)c1Br |
| 0.107 µmol/h | O=Cc1cc(Br)nc(Br)c1 |
| 0.0148 µmol/h | Nc1nnc(Br)cc1Br |
| 1.25 µmol/h | CCn1c2ccc(Br)cc2c2cc(Br)ccc21 |
| 0.0539 µmol/h | c1ccc(-c2c3ccccc3c(-c3ccccc3)c3c(-c4ccccc4)c4ccccc4c(-c4ccccc4)c23)cc1 |
| 0 µmol/h | Brc1cnc(Br)c2nsnc12 |
| 0.441 µmol/h | O=C(O)c1ccc(-c2cc(-c3ccccn3)nc(-c3ccccn3)c2)cc1 |
| 0.00108 µmol/h | CCOC(=O)c1nc(C(=O)OCC)nc(C(=O)OCC)n1 |
| 0 µmol/h | Fc1cc(Br)ccc1Br |
| 0 µmol/h | O=Cc1ccc2nccnc2c1 |
| 0 µmol/h | N#Cc1ccc(-c2cccc(N)c2)cc1 |
| 0 µmol/h | Nc1cccc2c(N)cccc12 |
| 0 µmol/h | c1ccc2c(c1)ccc1c3ccccc3ccc21 |
| 0 µmol/h | CC1(C)OB(c2c3ccccc3c(B3OC(C)(C)C(C)(C)O3)c3ccccc23)OC1(C)C |
| 0 µmol/h | O=Cc1cccc(O)c1O |
| 0 µmol/h | Cc1cnc(C#N)c(C#N)n1 |
| 0 µmol/h | Cc1cc(C)cc([N+](=O)[O-])c1 |
| 0 µmol/h | O=C1C(=O)c2cccnc2-c2ncccc21 |
| 2.06 µmol/h | O=Cc1c2ccccc2cc2ccccc12 |

| photocatalytic hydrogen evolution rate | Structure (SMILES) |
| --- | --- |
| 3.58 µmol/h | O=Cc1ccc(-c2cccnc2)cc1 |
| 0.297 µmol/h | O=Cc1ccc(Br)nc1 |
| 0.624 µmol/h | O=Cc1ccc(Br)cc1 |
| 0.0666 µmol/h | Nc1nc(Br)cnc1Br |
| 1.32 µmol/h | C1=Cc2nc1c(-c1ccccc1)c1ccc([nH]1)c(-c1ccccc1)c1nc(c(-c3ccccc3)c3ccc([nH]3)c2-c2ccccc2)C=C1 |
| 0.84 µmol/h | c1csc(-c2ccc(-c3cccs3)c3nsnc23)c1 |
| 0 µmol/h | O=C1OC(=O)c2ccc3c4ccc5c6c(ccc(c7ccc1c2c73)c64)C(=O)OC5=O |
| 0.236 µmol/h | CC(C)(C)c1ccnc(-c2cc(C(C)(C)C)ccn2)c1 |
| 0 µmol/h | O=c1cccc[nH]1 |
| 0.401 µmol/h | N#Cc1cc2ccccc2cc1C#N |
| 3.11 µmol/h | O=Cc1ccc2ncccc2c1 |
| 0 µmol/h | OB(O)c1cccc(B(O)O)c1 |
| 0 µmol/h | c1ccc(N(c2ccccc2)c2ccccc2)cc1 |
| 6.86 µmol/h | O=C1c2cc3ccccc3cc2C(=O)c2cc3ccccc3cc21 |
| 0 µmol/h | C#Cc1cc(C(=O)O)cc(C(=O)O)c1 |
| 0.132 µmol/h | CCCCCCCCCCCCC1(CCCCCCCCCCCC)c2cc(B(O)O)ccc2-c2ccc(B(O)O)cc21 |
| 0 µmol/h | Oc1c(Br)c(O)c(Br)c(O)c1Br |
| 0 µmol/h | NNC(=O)c1cc(Br)c(O)c(Br)c1 |
| 0 µmol/h | Cc1cc(C#N)c(C)cc1C#N |
| 0.0108 µmol/h | N#CCc1ccc(-c2ccc(CC#N)cn2)nc1 |
| 0 µmol/h | CCCCCCCCC1(CCCCCCCC)c2cc(Br)ccc2-c2ccc(Br)cc21 |
| 0 µmol/h | N#Cc1ccc(-c2ccc(C#N)cc2)cc1 |
